The record followed here is patent publication US20140023611A1 (priority 2010, published 2014).

The structures appear in SMILES notation.

One experiment addresses T1, rat NaP2b (SLC34A2) (Rattus norvegicus, UniProt Q9JJ09).
T1 construct: host or cells: HEK293
T1 sequence (Q9JJ09 1-695): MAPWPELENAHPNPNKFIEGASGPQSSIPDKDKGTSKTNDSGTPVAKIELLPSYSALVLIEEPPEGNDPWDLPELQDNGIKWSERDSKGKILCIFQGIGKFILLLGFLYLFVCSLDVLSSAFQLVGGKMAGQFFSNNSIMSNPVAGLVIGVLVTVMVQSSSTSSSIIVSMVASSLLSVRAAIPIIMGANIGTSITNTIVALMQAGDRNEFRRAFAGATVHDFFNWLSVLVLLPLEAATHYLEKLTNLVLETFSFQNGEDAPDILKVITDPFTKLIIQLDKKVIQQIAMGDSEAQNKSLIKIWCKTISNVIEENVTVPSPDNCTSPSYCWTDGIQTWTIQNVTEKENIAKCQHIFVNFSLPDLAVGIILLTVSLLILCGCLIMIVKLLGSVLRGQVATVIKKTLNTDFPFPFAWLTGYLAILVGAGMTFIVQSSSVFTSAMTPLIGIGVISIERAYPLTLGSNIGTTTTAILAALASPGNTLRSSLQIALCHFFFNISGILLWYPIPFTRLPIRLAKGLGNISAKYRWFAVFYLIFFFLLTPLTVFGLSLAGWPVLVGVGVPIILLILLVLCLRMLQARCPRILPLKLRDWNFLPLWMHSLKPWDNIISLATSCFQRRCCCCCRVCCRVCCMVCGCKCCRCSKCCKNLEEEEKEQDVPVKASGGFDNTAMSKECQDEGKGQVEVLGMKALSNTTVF
As to the kind of experiment: Inhibition of NaP2b-mediated Pi (33P) uptake in transfected HEK293 cells, rat NaP2b. It is filed as cell-based. The conditions noted are these: 33P Pi uptake, 0.1 mM phosphate, value given as pIC50 range. In short, it runs like this:
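The cells transiently expressed NaP2b after Lipofectamine transfection. Each compound was run in duplicate over twelve concentrations, 0.1 nM–30 uM.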

The target of the next experiment is T2, human NaP2b (SLC34A2) (Homo sapiens, UniProt O95436).
T2 construct: host or cells: HEK293
T2 sequence (O95436 1-690): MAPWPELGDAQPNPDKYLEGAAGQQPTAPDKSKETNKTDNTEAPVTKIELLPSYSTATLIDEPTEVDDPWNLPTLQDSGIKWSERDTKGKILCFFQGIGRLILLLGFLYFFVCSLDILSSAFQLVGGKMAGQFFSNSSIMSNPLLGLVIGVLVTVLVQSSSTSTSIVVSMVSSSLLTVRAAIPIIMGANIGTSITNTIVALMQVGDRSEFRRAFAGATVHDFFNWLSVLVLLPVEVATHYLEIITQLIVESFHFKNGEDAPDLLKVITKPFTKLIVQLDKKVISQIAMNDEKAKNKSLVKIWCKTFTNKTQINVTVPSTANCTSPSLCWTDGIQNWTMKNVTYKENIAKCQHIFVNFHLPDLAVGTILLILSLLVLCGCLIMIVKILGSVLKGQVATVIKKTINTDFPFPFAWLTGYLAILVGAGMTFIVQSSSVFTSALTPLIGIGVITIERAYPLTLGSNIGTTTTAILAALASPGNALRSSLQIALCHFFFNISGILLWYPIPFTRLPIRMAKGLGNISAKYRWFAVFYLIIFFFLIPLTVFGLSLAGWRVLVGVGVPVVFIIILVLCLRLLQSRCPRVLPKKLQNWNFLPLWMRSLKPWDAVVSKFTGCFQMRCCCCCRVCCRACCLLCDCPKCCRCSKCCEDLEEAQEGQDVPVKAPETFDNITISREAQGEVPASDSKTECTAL
The experiment can be described thus: Inhibition of NaP2b-mediated Pi (33P) uptake in transfected HEK293 cells, human NaP2b. It is filed as cell-based. The conditions noted are these: read-out: pIC50 range for human NaP2b (converted). A digest of the protocol:
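Uptake of 33P-phosphate (100 uM KH2PO4 carrier, sodium vs choline buffer, pH 7.4) measured after 3-30 min at room temperature, with test compound at twelve concentrations from 0.1 nM to 30 uM in duplicate. Cells were HEK293 transfected with mutated human NaP2b (Thr insertion after 37, N39D) and treated with a PiT-silencing agent. pIC50 values from scintillation counts.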

Take `COCCOCCOCCOCCOCCOCCOCCN(C)C(=O)CCOCCOCCOCCOCCCc1cccc(C(=O)Nc2ccc(N3CCCCC3)cc2-c2cc(C(=O)NCc3cccc(C(F)(F)F)c3)ccn2)c1` [Example 276]: the IC50 at rat NaP2b (SLC34A2) and at human NaP2b (SLC34A2) was 1 to 7.94 µM in each case.
Take `O=C(NCc1cccc(C(F)(F)F)c1)c1ccnc(-c2cc(N3CCCCC3)ccc2NC(=O)c2cccc(CCCOCCOCCOCCOCCC(=O)N(CCO)CCO)c2)c1` [Example 277]: the IC50 at rat NaP2b (SLC34A2) and at human NaP2b (SLC34A2) was 1 to 7.94 µM in each case.
On to `O=C(CCOCCOCCOCCOCCCc1cccc(C(=O)Nc2ccc(N3CCCCC3)cc2-c2cc(C(=O)NCc3cccc(C(F)(F)F)c3)ccn2)c1)NC(CO)(CO)CO` [Example 278], for which the IC50 against rat NaP2b (SLC34A2) and at human NaP2b (SLC34A2) was 1 to 7.94 µM throughout.
As to `CCN(CC)c1ccc(NC(=O)c2cccc(CCCOCCOCCOCCOCCC(=O)NCCOCCOCCOCCOCCOCCOCCOCCOC)c2)c(-c2cc(C(=O)N[C@H]3CCCc4ccccc43)ccn2)c1` [Example 279], the IC50 on rat NaP2b (SLC34A2) and at human NaP2b (SLC34A2) was 1 to 7.94 µM each time.
For the compound `CCN(CC)c1ccc(NC(=O)c2cccc(CCCOCCOCCOCCOCCC(=O)N(C)CCOCCOCCOCCOCCOCCOCCOC)c2)c(-c2cc(C(=O)N[C@H]3CCCc4ccccc43)ccn2)c1` [Example 280], the IC50 on rat NaP2b (SLC34A2) and on human NaP2b (SLC34A2) was under 1 µM in each case.
Take `CCN(CC)c1ccc(NC(=O)c2cccc(CCCOCCOCCOCCOCCC(=O)N(CCO)CCO)c2)c(-c2cc(C(=O)N[C@H]3CCCc4ccccc43)ccn2)c1` [Example 282]: the IC50 at rat NaP2b (SLC34A2) is under 1 µM; on human NaP2b (SLC34A2), 1 to 7.94 µM.
`CCN(CC)c1ccc(NC(=O)c2cccc(CCCOCCOCCOCCOCCC(=O)NC(CO)(CO)CO)c2)c(-c2cc(C(=O)N[C@H]3CCCc4ccccc43)ccn2)c1` [Example 283]: the IC50 on rat NaP2b (SLC34A2) was under 1 µM; on human NaP2b (SLC34A2), 1 to 7.94 µM.
For `CC(C)(C)OC(=O)CCOCCOCCOCCOCCCc1cccc(C(=O)Nc2ccc(OC3CCC3)cc2-c2cc(C(=O)N[C@H]3CCCc4ccccc43)ccn2)c1` [Example 284, (S)-tert-butyl 16-(3-((4-cyclobutoxy-2-(4-((1,2,3,4-tetrahydronaphthalen-1-yl)carbamoyl)pyridin-2-yl)phenyl)carbamoyl)phenyl)-4,7,10,13-tetraoxahexadecan-1-oate], the IC50 against rat NaP2b (SLC34A2) and at human NaP2b (SLC34A2) was 1 to 7.94 µM each time.
On to `CCN(CC)c1ccc(NC(=O)c2cccc(CCCOCCOCCOCCOCCNS(=O)(=O)c3cccc(C(=O)O)c3)c2)c(-c2cc(C(=O)NCc3cccc(C(F)(F)F)c3)ccn2)c1` [Example 289, 3-(N-(15-(3-(4-(diethylamino)-2-(4-(3-(trifluoromethyl)benzylcarbamoyl)pyridin-2-yl)phenylcarbamoyl)phenyl)-3,6,9,12-tetraoxapentadecyl)sulfamoyl)benzoic acid], for which the IC50 against rat NaP2b (SLC34A2) and at human NaP2b (SLC34A2) was 1 to 7.94 µM throughout.
With `CCN(CC)c1ccc(NC(=O)c2cccc(CCCOCCOCCOCCOCCC(=O)N3CCN(S(=O)(=O)c4ccc(C(=O)O)cc4)CC3)c2)c(-c2cc(C(=O)NCc3cccc(C(F)(F)F)c3)ccn2)c1` [Example 290, 4-(4-(16-(3-(4-(diethylamino)-2-(4-(3-(trifluoromethyl)benzylcarbamoyl)pyridin-2-yl)phenylcarbamoyl)phenyl)-4,7,10,13-tetraoxahexadecane)piperazin-1-ylsulfonyl)benzoic acid], the IC50 against rat NaP2b (SLC34A2) was 10 to 31.6 µM; at human NaP2b (SLC34A2) it was 1 to 7.94 µM.
`CCN(CC)c1ccc(NC(=O)c2cccc(CCCOCCOCCOCCOCCC(=O)N3CCN(S(=O)(=O)c4ccc(C)cc4)CC3)c2)c(-c2cc(C(=O)NCc3cccc(C(F)(F)F)c3)ccn2)c1` [Example 291, 2-(5-(diethylamino)-2-(3-(16-oxo-16-(4-tosylpiperazin-1-yl)-4,7,10,13-tetraoxahexadecyl)benzamido)phenyl)-N-(3-(trifluoromethyl)benzyl)isonicotinamide]: the IC50 is 1 to 7.94 µM at rat NaP2b (SLC34A2) and under 1 µM on human NaP2b (SLC34A2).
As for `CCN(CC)c1ccc(NC(=O)c2cccc(CCCOCCOCCOCCOCCC(=O)N3CCN(S(=O)(=O)C(C)C)CC3)c2)c(-c2cc(C(=O)NCc3cccc(C(F)(F)F)c3)ccn2)c1` [Example 292, 2-(5-(diethylamino)-2-(3-(16-(4-(isopropylsulfonyl)piperazin-1-yl)-16-oxo-4,7,10,13-tetraoxahexadecyl)benzamido)phenyl)-N-(3-(trifluoromethyl)benzyl)isonicotinamide], the IC50 against rat NaP2b (SLC34A2) was 1 to 7.94 µM; at human NaP2b (SLC34A2), under 1 µM.
In the same order, the values of `CCN(CC)c1ccc(NC(=O)c2cccc(CCCOCCOCCOCCOCCC(=O)O)c2)c(-c2cc(C(=O)N[C@H]3CCCc4ccccc43)ccn2)c1` [Example 302, (S)-16-(3-(4-(diethylamino)-2-(4-(1,2,3,4-tetrahydronaphthalen-1-ylcarbamoyl)pyridin-2-yl)phenylcarbamoyl)phenyl)-4,7,10,13-tetraoxahexadecan-1-oic acid] are under 1 µM and under 1 µM.
In the same order, the values of `O=C(O)CCOCCOCCOCCOCCCc1cccc(C(=O)Nc2ccc(N3CCCCC3)cc2-c2cc(C(=O)NCc3cccc(C(F)(F)F)c3)ccn2)c1` [Example 303, 16-(3-(4-(piperidin-1-yl)-2-(4-(3-(trifluoromethyl)benzylcarbamoyl)pyridin-2-yl)phenylcarbamoyl)phenyl)-4,7,10,13-tetraoxahexadecan-1-oic acid] are 1 to 7.94 µM and under 1 µM.
On the same counts, the results for `CCN(CC)c1ccc(NC(=O)c2cccc(CCCOCCOCCOCCOCCOCCOCCC(=O)O)c2)c(-c2cc(C(=O)N[C@H]3CCCc4ccccc43)ccn2)c1` [Example 304, (S)-22-(3-(4-(diethylamino)-2-(4-(1,2,3,4-tetrahydronaphthalen-1-ylcarbamoyl)pyridin-2-yl)phenylcarbamoyl)phenyl)-4,7,10,13,16,19-hexaoxadocosan-1-oic acid] are under 1 µM and under 1 µM.
Regarding `CCN(CC)c1ccc(NC(=O)c2cccc(CCCOCCOCCOCCOCCOCCC(=O)O)c2)c(-c2cc(C(=O)N[C@H]3CCCc4ccccc43)ccn2)c1` [Example 306, (S)-19-(3-(4-(diethylamino)-2-(4-(1,2,3,4-tetrahydronaphthalen-1-ylcarbamoyl)pyridin-2-yl)phenylcarbamoyl)phenyl)-4,7,10,13,16-pentaoxanonadecan-1-oic acid], the IC50 at rat NaP2b (SLC34A2) and on human NaP2b (SLC34A2) was under 1 µM each time.
With `CCN(CC)c1ccc(NC(=O)c2cccc(CCCOCCOCCOCCOCCOCC(CO)(CO)CO)c2)c(-c2cc(C(=O)NCc3cccc(C(F)(F)F)c3)ccn2)c1` [Example 332, N-(3-(trifluoromethyl)benzyl)-2-(5-(diethylamino)-2-(3-(3-(2-(2-(2-(2-(3-hydroxy-2,2-bis(hydroxymethyl)propoxy)ethoxy)ethoxy)ethoxy)ethoxy)propyl)benzamido)phenyl)isonicotinamide], the IC50 on rat NaP2b (SLC34A2) and on human NaP2b (SLC34A2) was under 1 µM in each case.
`CCN(CC)c1ccc(NC(=O)c2cccc(C(=O)N(C)CCN(CCOC)CCOCCOCCOCCC(=O)NC(C)(C)C)c2)c(-c2cc(C(=O)NCc3cccc(C(F)(F)F)c3)ccn2)c1` [Example 337, N^1-(4-(Diethylamino)-2-(4-(3-(trifluoromethyl)benzylcarbamoyl)pyridin-2-yl)phenyl)-N3-(3-(2-methoxyethyl)-17,17-dimethyl-15-oxo-6,9,12-trioxa-3,16-diazaoctadecyl)-N^3-methylisophthalamide]: the IC50 against rat NaP2b (SLC34A2) and at human NaP2b (SLC34A2) was 1 to 7.94 µM each time.
